Results: patent publication US5217986A, “Anti-allergy agent” (Harbor Branch Oceanographic Institution, Inc., priority 1992, dated 1993)

What was measured:
guinea pig ileum = test: Guinea pig ileum assay (inhibition of Rα-methylhistamine effect on electrical field stimulated contractions)
Experimental: Male guinea pigs (450-500 g) were sacrificed by cervical dislocation. Portions of the ileum (20-40 cm) were removed and placed in Tyrodes solution (NaCl, 8.0; KCl, 0.2; MgCl2.6H2 O, 0.2; CaCl2, 0.13; NaH2 PO4, 0.06; dextrose, 1.0; NaHCO3, 1.0 g/l). The ilea were cut into 2.5 cm segments, mounted between platinum wire coaxial electrodes and placed in water-jacketed organ baths containing 25 ml of the Tyrodes solution. Bath fluid temperature was maintained at 37° C. and aerated with 95% 02-5% CO2. The muscles were suspended from isometric force transducers (Grass FT03C) under 0.3 g resting tension. Contractions were amplified on a Buxco tension monitor and recorded on a Harvard polygraph. […] Once this 80% response was determined it was evoked every 60 seconds throughout the experiment. […]
Rα-methylhistamine inhibits the electrical field stimulated contractions of the guinea pig ileum and was used as the H3 agonist reference standard. H3 agonists were studied for their ability to inhibit the electrical field stimulated contractions and their activity was expressed as a percentage of the maximum Rα-methylhistamine effect. […]
Relative potency for agonists was determined from the pD2 (Furchgott, R. F., The pharmacology of Vascular Smooth Muscle. Pharm. Rev. 7, 183, 1955.) calculations. Relative potency for antagonists was determined from pA2 calculations. […]

H3 receptor = molecular target: T1, H3 receptor (Cavia porcellus, UniProt Q9JI35); test: H3 receptor binding assay ([3H]R-α-methylhistamine, guinea pig brain membranes)
T1 construct: The source of the H3 receptors in this experiment was guinea pig brain; from tissue; host or cells: guinea pig brain membranes
Experimental: The source of the H3 receptors in this experiment was guinea pig brain. The animals used weighed 400-600 g. The tissue was homogenized using a Polytron in a solution of 50 mM Tris, pH 7.5. The final concentration of tissue in the homogenization buffer was 10% w/v. The homogenates were centrifuged at 1000× g for 10 minutes in order to remove clumps of tissue and debris. The resulting supermatants were then centrifuged at 50,000× g for 20 minutes in order to sediment the membranes, which were next washed 3 times in homogenization buffer (50,000× g for 20 minutes each). The membranes were frozen and stored at -70° C. until needed.
The compound to be tested was dissolved in DMSO (dimethyl sulfoxide) and then diluted into the binding buffer (50 mM Tris, pH 7.5) such that the final concentration was 2 μg/mL with 0.1% DMSO. Membranes were then added (400 μg of protein) to the reaction tubes. The reaction was started by the addition of 3 nM [^3 H]R-α-methylhistamine (8.8 Ci/mmol) and incubated at 30° C. for 30 minutes. Bound ligand was separated from unbound ligand by filtration, and the amount of radioactive ligand bound to the membranes was quantitated by liquid scintillation spectrometry. The incubation was performed in duplicate and the standard error was less than 10%.

T1 sequence (Q9JI35 whole entry): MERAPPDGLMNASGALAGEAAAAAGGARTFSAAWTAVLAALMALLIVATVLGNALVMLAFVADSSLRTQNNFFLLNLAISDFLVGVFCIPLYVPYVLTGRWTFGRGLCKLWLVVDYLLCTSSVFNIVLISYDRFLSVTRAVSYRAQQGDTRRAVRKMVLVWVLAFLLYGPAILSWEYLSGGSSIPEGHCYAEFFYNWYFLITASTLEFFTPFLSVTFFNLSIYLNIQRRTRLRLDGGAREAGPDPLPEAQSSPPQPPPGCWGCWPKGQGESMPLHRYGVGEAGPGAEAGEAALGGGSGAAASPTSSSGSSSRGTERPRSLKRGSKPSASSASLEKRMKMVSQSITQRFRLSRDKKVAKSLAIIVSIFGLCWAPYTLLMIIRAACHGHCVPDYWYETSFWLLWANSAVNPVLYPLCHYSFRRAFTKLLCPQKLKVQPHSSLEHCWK

IC50 (H3 receptor; guinea pig brain membranes, 3 nM [3H]R-α-methylhistamine, 30° C., 30 minutes, pH 7.5): 498 nM | activity in an H3 receptor assay (H3 receptor; no concentration stated): active
SMILES: COc1ccc(CC(=NO)C(=O)NCCc2c[nH]cn2)cc1Br [verongamine]
Guinea Pig Ileum (guinea pig ileum; @ 1 μg/mL, 1 μM chlorpheniramine present, 37° C.): antagonist | activity on guinea pig ileum (guinea pig ileum; no concentration stated): H3 antagonist
